# According to patent US20040037806A1, “Aldosterone blocker therapy to prevent or treat inflammation-related disorders” (Pharmacia Corporation, priority 2002, published 2004):
# Columns and labels:
# Format in all cases: in vivo, rat
# osteopontin = test: Assay A: osteopontin immunostaining of hearts; settings: angiotensin II-infused, saline-drinking Wistar rats; eplerenone 100 mpk; aldosterone replacement in adrenalectomized rats
# [1] = Assay A: angiotensin II infusion model, systolic blood pressure by tail-cuff; settings: Wistar rats, 1% NaCl to drink, angiotensin II 25 ng/min sc, 4 weeks; eplerenone 100 mpk; aldosterone given to adrenalectomized, dexamethasone-treated rats
# [2] = Assay A: angiotensin II infusion model, heart histology (hematoxylin&eosin), vascular inflammation and myocardial injury; settings: Wistar rats, 1% NaCl, angiotensin II 25 ng/min sc, 4 weeks, 10/group; eplerenone 100 mpk; aldosterone replacement in adrenalectomized rats
# Text: Assay A: In Vivo Angiotensin II Infusion Model
# Male Wistar rats (n=50, 10/group; BW=200 g)
# Sacrifice by exanguination after 4 weeks. Blood was be collected in dry tubes for determination of serum electrolytes and in EDTA-containing tubes for measurement of aldosterone and corticosterone levels
# Hearts were stained with hematoxylin&eosin and have been analyzed for determination of morphologic abnormalities (i.e. necrosis, vascular injury).
# [3] = Assay A: angiotensin II infusion model, urinary Na+/K+ ratio (natriuresis index); settings: Wistar rats, 1% NaCl, angiotensin II 25 ng/min sc; eplerenone 100 mpk
# Text: Electrolyte excretion. The ratio between daily urinary Na^+ excretion and urinary K^+ excretion (U Na^+/K^+ ratio) was used as an index for natriuresis. Urinary Na^+/K^+ ratio was similar in all groups before the start of the treatments, and increased similarly in all animals upon initiation of the high salt diet.
# cyclooxygenase-2 (COX-2) = test: Assay A: cyclooxygenase-2 immunostaining of hearts; settings: angiotensin II-infused, saline-drinking Wistar rats, eplerenone 100 mpk, aldosterone replacement in adrenalectomized rats
substance,measurement,setting,value
"angiotensin II (DRVYIHPF; Angiotensin-2; UniProt P01019 25-32, looked up) [vasoconstrictive octapeptide infused sc via alzet minipump to induce hypertension]",Osteopontin expression in the heart (immunostaining),osteopontin,presence of osteopontin in the media of coronary arteries
same,Systolic blood pressure,[1],increased
same,Vascular inflammatory lesions in the coronary arteries / heart,[2],Seven out of the ten
same,Urinary Na+/K+ ratio (index for natriuresis),[3],significantly increased
same,Cyclooxygenase-2 expression in the heart (immunostaining),cyclooxygenase-2 (COX-2),presence of this enzyme in areas of inflammation around the arteries
same,Cyclooxygenase-2 expression in the heart (immunostaining),cyclooxygenase-2 (COX-2); listed as Ang II,induction of COX-2 expression
